Measured values published in patent publication US9422296B2, “Fast-dissociating dopamine 2 receptor antagonists” (Janssen Pharmaceutica NV, priority 2007, dated 2016).
Read-outs that look alike come from different tables or passages of the source.

Tests used:
[1] = target: T1, human Dopamine D2L receptor (Homo sapiens, UniProt P14416); assay: In vitro binding affinity for human D2L receptor ([3H]spiperone); conditions: membranes of human D2L receptor-transfected CHO cells, read-out: D2L binding pIC50 (converted)
T1 construct: expressed in transfected cells; host or cells: CHO cells (membranes)
T1 sequence (P14416 whole entry): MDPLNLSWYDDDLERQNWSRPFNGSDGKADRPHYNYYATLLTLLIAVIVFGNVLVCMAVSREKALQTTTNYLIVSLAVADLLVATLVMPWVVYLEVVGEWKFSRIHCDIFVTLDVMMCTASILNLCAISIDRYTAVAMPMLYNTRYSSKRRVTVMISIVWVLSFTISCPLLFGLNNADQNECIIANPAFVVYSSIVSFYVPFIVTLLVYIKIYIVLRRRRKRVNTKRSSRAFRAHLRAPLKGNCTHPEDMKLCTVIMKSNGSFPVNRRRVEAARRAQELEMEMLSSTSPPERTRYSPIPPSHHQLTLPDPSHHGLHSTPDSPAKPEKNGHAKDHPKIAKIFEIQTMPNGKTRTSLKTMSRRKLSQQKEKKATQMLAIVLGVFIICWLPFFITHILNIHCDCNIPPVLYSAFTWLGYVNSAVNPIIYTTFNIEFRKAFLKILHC
Description: In order to find antipsychotic compounds active against positive and negative symptoms and cognitive impairment, and having an improved safety profile (low EPS incidence and no metabolic disorders), we have screened for compounds selectively interacting with the dopamine D2 receptor and dissociating fast from this receptor, and further having affinity for the dopamine D3 receptor as well as the serotonin 5-HT-6 receptor. Compounds were first screened for their D2 affinity in a binding assay using [^3H]spiperone and human D2L receptor cell membranes.
Pharmacology In Vitro Binding Affinity for Human D2L Receptor
Frozen membranes of human Dopamine D2L receptor-transfected CHO cells were thawed, briefly homogenised using an Ultra-Turrax T25 homogeniser and diluted in Tris-HCl assay buffer containing NaCl, CaCl2, MgCl2, KCl (50, 120, 2, 1, and 5 mM respectively, adjusted to pH 7.7 with HCl) to an appropriate protein concentration optimised for specific and non-specific binding. Radioligand [^3H]Spiperone (NEN, specific activity ˜70 Ci/mmol) was diluted in assay buffer at a concentration of 2 nmol/L. Prepared radioligand (50 μl), along with 50 μl of either the 10% DMSO control, Butaclamol (10^−6 mol/1 final concentration), or compound of interest, was then incubated (30 min, 37° C.) with 400 μl of the prepared membrane solution. Membrane-bound activity was filtered through a Packard Filtermate harvester onto GF/B Unifilterplates and washed with ice-cold Tris-HCl buffer (50 mM; pH 7.7; 6×0.5 ml). Filters were allowed to dry before adding scintillation fluid and counting in a Topcount scintillation counter. Percentage specific bound and competition binding curves were calculated using S-Plus software (Insightful).

human D2L receptor = target: T2, human D2L receptor (Homo sapiens, UniProt P14416); assay: Fast dissociation: indirect assay of rate of dissociation from D2 receptor ([3H]spiperone binding after pre-incubation with compound); conditions: [3H]spiperone binding as % of total binding capacity after 5 min on filter; compound pre-incubated at 4 times its IC50; >50% = faster than clozapine
T2 construct: expressed in transfected cells
T2 sequence (P14416 whole entry): as above
Description: Compounds were first screened for their D2 affinity in a binding assay using [^3H]spiperone and human D2L receptor cell membranes.
Compounds at a concentration of 4 times their IC50 were first incubated for one hour with human D2L receptor cell membranes in a volume of 2 ml at 25° C., then filtered over glass-fibre filter under suction using a 40 well multividor Immediately after, the vacuum was released. 0.4 ml of pre-warmed buffer (25° C.) containing 1 nM [^3H]spiperone was added on the filter for 5 minutes. The incubation was stopped by initiating the vacuum and immediate rinsing with 2×5 ml of ice-cold buffer. The filter-bound radioactivity was measured in a liquid scintillation spectrometer. The principle of the assay is based on the assumption that the faster a compound dissociates from the D2 receptor, the faster [^3H]spiperone binds to the D2 receptor.

[2] = target: T3, human Serotonin 5HT6 receptor (Homo sapiens, UniProt P50406); assay: In vitro binding affinity for human 5HT6 receptor ([3H]lysergic acid diethylamide); conditions: [3H]LSD, membranes of human 5HT6 receptor-transfected HEK cells; read-out: 5-HT6 binding pIC50 (converted)
T3 construct: expressed in transfected cells; host or cells: HEK cells (membranes)
T3 sequence (P50406 whole entry): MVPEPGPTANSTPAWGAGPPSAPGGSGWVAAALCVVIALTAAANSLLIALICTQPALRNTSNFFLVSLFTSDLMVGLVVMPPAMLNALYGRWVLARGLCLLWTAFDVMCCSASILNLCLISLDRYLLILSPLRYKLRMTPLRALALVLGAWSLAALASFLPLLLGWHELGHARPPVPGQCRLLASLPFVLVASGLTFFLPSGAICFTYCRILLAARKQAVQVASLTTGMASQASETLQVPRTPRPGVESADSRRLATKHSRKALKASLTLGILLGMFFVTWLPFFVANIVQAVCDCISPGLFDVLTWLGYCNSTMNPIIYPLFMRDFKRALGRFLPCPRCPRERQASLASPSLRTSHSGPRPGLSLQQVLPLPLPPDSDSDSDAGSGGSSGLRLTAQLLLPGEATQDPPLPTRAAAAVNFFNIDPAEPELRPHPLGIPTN
Description: In Vitro Binding Affinity for Human 5HT6 Receptor
Frozen membranes of human Serotonin 5HT6 receptor-transfected HEK cells were thawed, briefly homogenized using an Ultra-Turrax T25 homogeniser and diluted in 50 mM Tris-HCl assay buffer containing 10 mM MgCl2, 1 mM EDTA and 10 μM Pargyline (adjusted to pH 7.4 with HCl) to an appropriate protein concentration optimized for specific and non-specific binding. Radioligand [^3H]Lysergic acid diethylamide (Perkin Elmer, specific activity ˜80 Ci/mmol) was diluted in assay buffer at a concentration of 20 nM. Radioligand (20 μl), along with 40 μl of either the 10% DMSO control, Methiothepine (10^−5 M final concentration), or compound of interest, was then incubated with 70 μl of the prepared membrane solution and 70 μl of WGA coated PVT beads (0.25 mg/well final concentration). After shaking for 24 hours at RT plates were counted in a Topcount™ scintillation counter. Percentage specific binding and competition binding curves were calculated using S-Plus software (Insightful).

[3] = target: T4, human Dopamine D3 receptor (Homo sapiens, UniProt P35462); assay: In vitro binding affinity for human D3 receptor ([125I]iodosulpride)
T4 construct: expressed in transfected cells; host or cells: CHO cells (membranes)
T4 sequence (P35462 whole entry): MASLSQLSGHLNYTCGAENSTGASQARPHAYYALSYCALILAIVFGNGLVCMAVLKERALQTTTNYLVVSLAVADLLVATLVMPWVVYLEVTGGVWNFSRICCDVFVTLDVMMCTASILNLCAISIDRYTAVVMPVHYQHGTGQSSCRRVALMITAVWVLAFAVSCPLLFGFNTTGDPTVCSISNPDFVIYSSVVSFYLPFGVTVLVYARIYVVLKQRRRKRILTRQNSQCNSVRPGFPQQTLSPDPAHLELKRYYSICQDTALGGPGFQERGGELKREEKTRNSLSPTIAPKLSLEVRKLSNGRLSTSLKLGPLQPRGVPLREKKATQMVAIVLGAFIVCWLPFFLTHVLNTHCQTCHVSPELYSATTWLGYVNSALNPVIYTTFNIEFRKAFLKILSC
Description: In Vitro Binding Affinity for Human D3 Receptor
Frozen membranes of human Dopamine D3 receptor-transfected CHO cells were thawed, briefly homogenized using an Ultra-Turrax T25 homogeniser and diluted in 50 mM Tris-HCl assay buffer containing 120 mM NaCl, 2 mM CaCl2, 1 mM MgCl2, 5 mM KCl and 0.1% BSA (adjusted to pH 7.4 with HCl) to an appropriate protein concentration optimized for specific and non-specific binding. Radioligand [^125I]Iodosulpride (Amersham, specific activity ˜2000 Ci/mmol) was diluted in assay buffer at a concentration of 2 nM. Prepared radioligand (20 μl), along with 40 μl of either the 10% DMSO control, Risperidone (10^−6M final concentration), or compound of interest, was then incubated with 70 μl of the prepared membrane solution and 70 μl of WGA coated PVT beads (0.25 mg/well final concentration). After shaking for 24 hours at RT plates were counted in a Topcount™ scintillation counter. Percentage specific binding and competition binding curves were calculated using S-Plus software (Insightful).

[4] = system: subchronic PCP-induced attentional set shifting; assay: Reversal of subchronic PCP-induced attentional set shifting in rats; type: in vivo
Description: Compound E1 was further found to be active in the ‘Reversal of subchronic PCP-induced attentional set shifting in rats’ test (J. S. Rodefer et al., Neurospychopharmacology (2007), 1-10).

[5] = [125I]iodosulpride, membranes of human D3 receptor-transfected CHO cells, read-out: D3 binding pIC50 (converted)

IC50 [3, 5] [nM] | SMILES | IC50 [1] [nM] | D2 dissociation (human D2L receptor) [%] | IC50 [2] [nM] | melting point [°C] | IC50 [3] [nM] | activity in reversal of subchronic PCP-induced attentional set shifting [4]
> 10000 | N#Cc1nnc(N2CCNCC2)cc1-c1ccccc1 [Example E10, 4-Phenyl-6-piperazin-1-yl-pyridazine-3-carbonitrile] | 5620 | 86 | 4570 | 271.6 |  | 
 | Fc1ccc(-c2cc(N3CCNCC3)nnc2C(F)(F)F)cc1 [Example E6, 4-(4-Fluorophenyl)-6-piperazin-1-yl-3-trifluoromethyl-pyridazine] | 372 | 55 | 214 | 137.4 | 36.3 | 
47.9 | Fc1ccc(-c2ccc(-c3cc(N4CCNCC4)nnc3C(F)(F)F)cc2)cc1 [Example E9, 4-(4′-Fluorobiphenyl-4-yl)-6-piperazin-1-yl-3-trifluoromethyl-pyridazine] | 794 | 48 | 1820 | 161.9 |  | 
25.1 | CCN1CCN(c2cc(-c3ccccc3)c(C(F)(F)F)nn2)CC1 [Example E2, 6-(4-Ethylpiperazin-1-yl)-4-phenyl-3-trifluoromethyl-pyridazine] | 204 | 80.5 | 3160 |  |  | 
> 10000 | FC(F)(F)c1nnc(N2CCN3CCCC3C2)cc1-c1ccccc1 (racemic) [Example E5, 2-(5-Phenyl-6-trifluoromethyl-pyridazin-3-yl)-octahydro-pyrrolo[1,2-a]pyrazine] | 1260 | 84 | 1020 |  |  | 
107 | FC(F)(F)c1nnc(N2CCNCC2)cc1-c1ccc(-c2ccccc2)cc1 [Example E35] | 2690 |  | 1510 | 199.1 |  | 

SMILES | IC50 [3, 5] [nM] | IC50 [1] [nM] | D2 dissociation (human D2L receptor) [%] | IC50 [2] [nM] | melting point [°C] | IC50 [3] [nM] | activity in reversal of subchronic PCP-induced attentional set shifting [4]
FC(F)(F)c1nnc(N2CCNCC2)cc1-c1ccsc1 [Example E7, 6-Piperazin-1-yl-4-thiophen-3-yl-3-trifluoromethyl-pyridazine] | > 10000 | 871 | 81 | 1550 | 244.3 |  | 
FC(F)(F)c1nnc(N2CCNCC2)cc1-c1ccccc1 [Example E1, 4-Phenyl-6-piperazin-1-yl-3-trifluoromethyl-pyridazine] | 66.1 | 1100 | 75 | 589 | 130.7 |  | active
Cc1ccccc1-c1cc(N2CCNCC2)nnc1C(F)(F)F [Example E8, 6-Piperazin-1-yl-4-o-tolyl-3-trifluoromethyl-pyridazine] | > 10000 | 1000 | 78.5 | 263 |  |  | 
FC(F)(F)c1nnc(N2CCNCC2)cc1-c1cccs1 [Example E19] | 148 | 1380 |  | 1950 | 112.6 |  | 
